Patent publication US4429127A, “Quinoline carboxylic acid derivative” (Kyorin Pharmaceutical Co., Ltd., priority 1981, dated 1984)
≈ marks a conversion by molar mass, not a printed value.

Experiments:
Acute toxicity in mice = assay type: in vivo; conditions: for LD50 at 168 h: mouse, in vivo, male mice, 7 days observation
From the text: Acute toxicity of the compound (I) was examined in mice (ICR strain, 7 weeks old). Observation period was 7 days after a single oral and intravenous administration.

[1] = system: Serratia marcescens IID618; test: In vitro antibacterial activity (MIC, agar dilution); assay type: cell-based; conditions: inoculum 10^8 cells/ml
Experimental: (§1) The minimum inhibitory concentration (MIC) of the compound (I) was determined by an agar dilution technique (the standard method of Japan Society of Chemotherapy) against standard strains of gram-positive and gram-negative bacteria.
(§2) Inoculum size: 10^8 cells/ml

[2] = system: Bacillus subtilis PCI 219; test: as above; assay type: cell-based; conditions: PCI219; Bacillus subtilis PCI 219; inoculum 10^8 cells/ml; read-out: MIC
Experimental: as §1, §2

P. aeruginosa IFO12689 = test: as above; assay type: cell-based; conditions: Pseudomonas aeruginosa; P. aeruginosa IFO12689; inoculum 10^8 cells/ml; read-out: MIC
Experimental: as §1, §2

[3] = system: Pseudomonas aeruginosa V-1; test: as above; assay type: cell-based; conditions: V1; Pseudomonas aeruginosa V-1; inoculum 10^8 cells/ml; read-out: MIC
Experimental: as §1, §2

[4] = system: Haemophilus influenzae IID986; test: as above; assay type: cell-based; conditions: Haemophilus influenzae IID986; inoculum 10^8 cells/ml; read-out: MIC
Experimental: as §1, §2

[5] = system: Alcaligenes faecalis 0104002; test: as above; assay type: cell-based; conditions: inoculum 10^8 cells/ml
Experimental: as §1, §2

S. faecalis IID682 = test: as above; assay type: cell-based; conditions: Enterococcus faecalis; S. faecalis IID682; inoculum 10^8 cells/ml; read-out: MIC
Experimental: as §1, §2

E. coli ATCC10536 = test: as above; assay type: cell-based; conditions: Escherichia coli; E. coli ATCC10536; inoculum 10^8 cells/ml; read-out: MIC
Experimental: as §1, §2

[6] = system: Acinetobacter enitratus IID876; test: as above; assay type: cell-based; conditions: inoculum 10^8 cells/ml
Experimental: as §1, §2

[7] = system: Klebsiella pneumoniae IFO3512; test: as above; assay type: cell-based; conditions: Klebsiella pneumoniae IFO3512; inoculum 10^8 cells/ml; read-out: MIC
Experimental: as §1, §2

[8] = system: Streptococcus pyogenes IID692; test: as above; assay type: cell-based; conditions: Streptococcus pyogenes IID692; inoculum 10^8 cells/ml; read-out: MIC
Experimental: as §1, §2

S. pyogenes S-8 = test: as above; assay type: cell-based; conditions: Streptococcus pyogenes, S8; S. pyogenes S-8; inoculum 10^8 cells/ml; read-out: MIC
Experimental: as §1, §2

E. coli ML4707 [9] = test: MIC against the infecting strain (Table 2); assay type: cell-based; conditions: Escherichia coli; E. coli ML4707; read-out: MIC
Experimental: as §1

[10] = system: Staphylococcus aureus Smith; test: MIC against the infecting strain (Table 2); assay type: cell-based; conditions: Staphylococcus aureus Smith; read-out: MIC
Experimental: as §1

E. coli ML4707 [11] = test: In vivo antibacterial activity, systemic infection in mice; parameters: species or system mice (male, ICR); conditions: Escherichia coli, ML4707, 168 h; mice, oral at 0 and 4 hrs. after infection; challenge 1.2 × 10^7 cells/animal in saline; 7 days survival; read-out: ED50
Experimental: (§3) The in vivo antibacterial activity of the compound (I) was determined in systemic infection in mice. The systemic infections were produced in male mice ICR (body weight, 19±2 g) by inoculating intraperitoneally with Staphylococcus aureus Smith and E. coli ML4707. The compounds were administered orally in divided doses at 0 and 4 hrs. after infection. The therapeutic effect of drugs was judged from the number of mice surviving after 7 days of observation. A comparison of in vivo antibacterial activity was made on the basis of the […] effective dose (ED50) calculated by the method of Litchfield and Wilcoxon.

[12] = system: Staphylococcus aureus Smith; test: as above; parameters: species or system mice (male, ICR)
Experimental: as §3

gram-positive bacteria = test: In vitro antibacterial activity against gram-positive bacteria (in words); assay type: cell-based
Experimental: as §1

[13] = Tissue levels after a single oral administration in mice (microbiological assay); assay type: in vivo; conditions: mouse; for concentration at 0.5 h / concentration at 1 h / concentration at 2 h / concentration at 4 h / concentration at 6 h: 50 mg/kg oral
Experimental: (§4) Tissue levels of the compound (I) after a single oral administration of 50 mg/kg in mice and rats
(§5) Tissue levels of the compound (I) were determined by micro-biological assay which employed the thin layer cup method with Bacillus subtilis ATCC6633 as the test organism. Serum and tissue levels of the compound (I) were calculated with the standard curve prepared in normal serum of the test animal species and M/15 phosphate buffer (pH 7.5), respectively.

[14] = system: gram-positive and gram-negative bacteria; test: In vitro antibacterial activity against gram-positive and gram-negative bacteria (in words); assay type: cell-based; conditions: versus nalidixic acid and pipemidic acid
Experimental: as §1

[15] = Tissue levels after a single oral administration, mice and rats together; assay type: in vivo; conditions: single oral 50 mg/kg
Experimental: as §4, §5

[16] = Tissue levels after a single oral administration in rats (microbiological assay); assay type: in vivo; conditions: rat; for concentration at 0.5 h / concentration at 1 h / concentration at 2 h / concentration at 4 h / concentration at 6 h: 50 mg/kg oral
Experimental: as §4, §5

[17] = kidney, read-out: Kidney concentration
[18] = liver, read-out: Liver concentration
[19] = lung, read-out: Lung concentration
[20] = serum, read-out: Serum concentration

CCn1cc(C(=O)O)c(=O)c2cc(F)c(N3CCN(Cc4ccc(N)cc4)CC3)c(F)c21 [compound (I), 7-[4-(p-aminobenzyl)-1-piperazinyl]-1-ethyl-6,8-difluoro-1,4-dihydro-4-oxoquinoline-3-carboxylic acid]
Acute toxicity, in words (Acute toxicity in mice; mice, single oral and intravenous administration): low toxicity | LD50 at 168 h (Acute toxicity in mice; iv): 250 to 300 mg/kg | LD50 at 168 h (Acute toxicity in mice; po): > 4000 mg/kg | MIC [1]: 3.13 µg/mL (≈ 7.07 µM) | MIC [2]: 0.1 µg/mL (≈ 0.226 µM) | MIC (P. aeruginosa IFO12689): 25 µg/mL (≈ 56.5 µM) | MIC [3]: 12.5 µg/mL (≈ 28.3 µM) | MIC [4]: 0.2 µg/mL (≈ 0.452 µM) | MIC [5]: 3.13 µg/mL (≈ 7.07 µM) | MIC (S. faecalis IID682): 0.78 µg/mL (≈ 1.76 µM) | MIC (E. coli ATCC10536): 0.39 µg/mL (≈ 0.881 µM) | MIC [6]: 0.78 µg/mL (≈ 1.76 µM) | MIC [7]: 0.1 µg/mL (≈ 0.226 µM) | MIC [8]: 0.78 µg/mL (≈ 1.76 µM) | MIC (S. pyogenes S-8): 0.78 µg/mL (≈ 1.76 µM) | MIC (E. coli ML4707 [9]): 0.39 µg/mL (≈ 0.881 µM) | MIC [10]: 0.05 µg/mL (≈ 0.113 µM) | ED50 (E. coli ML4707 [11]): 13.8 mg/kg | Potency superior to nalidixic acid (in vivo) ([12]; S. aureus Smith, versus nalidixic acid): 172 times | In vivo antibacterial activity, in words ([12]; S. aureus Smith, versus nalidixic acid and pipemidic acid): significantly more effective than that of nalidixic acid and pipemidic acid | Potency superior to pipemidic acid (in vivo) ([12]; S. aureus Smith, versus pipemidic acid): 62 times | ED50 ([12]; Staphylococcus aureus, 168 h, mice, oral at 0 and 4 hrs. after infection, challenge 2.4 × 10^5 cells/animal in BHI containing mucin, 7 days survival, read-out: ED50): 3.7 mg/kg | Antibacterial activity against gram-positive bacteria containing Streptococcus spp., in words (gram-positive bacteria): more potent against gram-positive bacteria containing Streptococcus spp. | concentration at 0.5 h [13, 17]: 13000 ng/mL | concentration at 1 h [13, 17]: 13000 ng/mL | concentration at 2 h [13, 17]: 7800 ng/mL | concentration at 4 h [13, 17]: 4600 ng/mL | concentration at 6 h [13, 17]: 4600 ng/mL | concentration at 0.5 h [13, 18]: 22500 ng/mL | concentration at 1 h [13, 18]: 17500 ng/mL | concentration at 2 h [13, 18]: 12000 ng/mL | concentration at 4 h [13, 18]: 9000 ng/mL | concentration at 6 h [13, 18]: 5800 ng/mL | concentration at 0.5 h [13, 19]: 12800 ng/mL | concentration at 1 h [13, 19]: 9500 ng/mL | concentration at 2 h [13, 19]: 5500 ng/mL | concentration at 4 h [13, 19]: 4300 ng/mL | concentration at 6 h [13, 19]: 2800 ng/mL | concentration at 0.5 h [13, 20]: 8600 ng/mL | concentration at 1 h [13, 20]: 6500 ng/mL | concentration at 2 h [13, 20]: 5000 ng/mL | concentration at 4 h [13, 20]: 2700 ng/mL | concentration at 6 h [13, 20]: 1800 ng/mL | Cmax ([13]; serum, mice, single oral 50 mg/kg, read-out: Peak serum level): 8600 ng/mL | Antibacterial activity against gram-positive and gram-negative bacteria, in words [14]: more active than nalidixic acid and pipemidic acid | Level in lung, liver and kidney relative to serum, in words ([15]; both species): higher than those in serum | Transferability in tissues, in words ([15]; mice and rats): very excellent | Tmax ([15]; serum, mice and rats, read-out: Time to peak serum level): 30 to 60 min | concentration at 0.5 h [16, 17]: 6600 ng/mL | concentration at 1 h [16, 17]: 6800 ng/mL | concentration at 2 h [16, 17]: 2700 ng/mL | concentration at 4 h [16, 17]: 1000 ng/mL | concentration at 6 h [16, 17]: 300 ng/mL | concentration at 0.5 h [16, 18]: 14000 ng/mL | concentration at 1 h [16, 18]: 15400 ng/mL | concentration at 2 h [16, 18]: 6200 ng/mL | concentration at 4 h [16, 18]: 2200 ng/mL | concentration at 6 h [16, 18]: 800 ng/mL | concentration at 0.5 h [16, 19]: 6000 ng/mL | concentration at 1 h [16, 19]: 8600 ng/mL | concentration at 2 h [16, 19]: 2100 ng/mL | concentration at 4 h [16, 19]: 600 ng/mL | concentration at 0.5 h [16, 20]: 4800 ng/mL | concentration at 1 h [16, 20]: 5300 ng/mL | concentration at 2 h [16, 20]: 1200 ng/mL | concentration at 4 h [16, 20]: 200 ng/mL | concentration at 6 h [16, 20]: 200 ng/mL | Cmax ([16]; serum, rats, single oral 50 mg/kg, read-out: Peak serum level): 5300 ng/mL
